Values after ≈ are worked out from the molar mass of the structure shown.
Columns and labels:
Staphylococcus aureus [1] = assay: Antibacterial activity against inducible macrolide-lincosamide-streptogramin B-resistant Staphylococcus aureus B0538 by agar microdilution method; format: functional
Staphylococcus aureus [2] = assay: Antibacterial activity against constitutive macrolide-lincosamide-streptogramin B-resistant Staphylococcus aureus B0330 by agar microdilution method; format: functional
Staphylococcus aureus [3] = assay: Antibacterial activity against efflux-resistant Staphylococcus aureus B0331 by agar microdilution method; format: functional
Streptococcus pneumoniae [4] = assay: Antibacterial activity against constitutive macrolide-lincosamide-streptogramin B-resistant Streptococcus pneumoniae B0627 by agar microdilution method; format: functional
Streptococcus pneumoniae [5] = assay: Antibacterial activity against efflux-resistant Streptococcus pneumoniae B0326 by agar microdilution method; format: functional
Streptococcus pyogenes [6] = assay: Antibacterial activity against inducible macrolide-lincosamide-streptogramin B-resistant Streptococcus pyogenes B0543 by agar microdilution method; format: functional
Streptococcus pyogenes [7] = assay: Antibacterial activity against constitutive macrolide-lincosamide-streptogramin B-resistant Streptococcus pyogenes B0544 by agar microdilution method; format: functional
Streptococcus pyogenes [8] = assay: Antibacterial activity against efflux-resistant Streptococcus pyogenes B0545 by agar microdilution method; format: functional
Moraxella catarrhalis = assay: Antibacterial activity against Moraxella catarrhalis B0324 by agar microdilution method; format: functional
Haemophilus influenzae = assay: Antibacterial activity against Haemophilus influenzae B0529 by agar microdilution method; format: functional
Staphylococcus aureus [9] = assay: Antibacterial activity against erythromycin A-susceptible Staphylococcus aureus B0329 by agar microdilution method
Streptococcus pneumoniae [10] = assay: Antibacterial activity against erythromycin-susceptible Streptococcus pneumoniae B0541 by agar microdilution method
Streptococcus pyogenes [11] = assay: Antibacterial activity against erythromycin A-susceptible Streptococcus pyogenes B0542 by agar microdilution method

Row | SMILES | MIC (Staphylococcus aureus [1]) | MIC (Staphylococcus aureus [2]) | MIC (Staphylococcus aureus [3]) | MIC (Streptococcus pneumoniae [4]) | MIC (Streptococcus pneumoniae [5]) | MIC (Streptococcus pyogenes [6]) | MIC (Streptococcus pyogenes [7]) | MIC (Streptococcus pyogenes [8]) | MIC (Moraxella catarrhalis) | MIC (Haemophilus influenzae) | MIC (Staphylococcus aureus [9]) | MIC (Streptococcus pneumoniae [10]) | MIC (Streptococcus pyogenes [11])
1 | CC[C@H]1OC(=O)[C@H](C)C(=O)[C@H](C)[C@@H](O[C@@H]2O[C@H](C)C[C@H](N(C)C)[C@H]2O)[C@](C)(OC[C@@H](O)CNCCNc2ccc3ncccc3c2)C[C@@H](C)NC(=O)[C@H](C)[C@@H](O)[C@]1(C)O | 0.25 µg/mL (≈ 0.3 µM) | > 64 µg/mL | 0.25 µg/mL (≈ 0.3 µM) | ≤ 0.125 µg/mL | ≤ 0.125 µg/mL | ≤ 0.125 µg/mL | 1 µg/mL (≈ 1.2 µM) | 0.5 µg/mL (≈ 0.601 µM) | ≤ 0.125 µg/mL | 0.25 µg/mL (≈ 0.3 µM) | ≤ 0.125 µg/mL | ≤ 0.125 µg/mL | ≤ 0.125 µg/mL
2 | CC[C@H]1OC(=O)[C@H](C)C(=O)[C@H](C)[C@@H](O[C@@H]2O[C@H](C)C[C@H](N(C)C)[C@H]2O)[C@](C)(OCC(O)CN2CCN(c3cnc4ccccc4c3)CC2)C[C@@H](C)NC(=O)[C@H](C)[C@@H](O)[C@]1(C)O (some centres undefined) | 2 µg/mL (≈ 2.33 µM) | > 64 µg/mL | 0.5 µg/mL (≈ 0.583 µM) | 4 µg/mL (≈ 4.66 µM) | 1 µg/mL (≈ 1.17 µM) | 8 µg/mL (≈ 9.32 µM) | 32 µg/mL (≈ 37.3 µM) | 4 µg/mL (≈ 4.66 µM) | 4 µg/mL (≈ 4.66 µM) | 8 µg/mL (≈ 9.32 µM) | 1 µg/mL (≈ 1.17 µM) | ≤ 0.125 µg/mL | ≤ 0.125 µg/mL
3 | C=CCO[C@]1(C)C[C@@H](C)NC(=O)[C@H](C)[C@@H](O)[C@](C)(O)[C@@H](CC)OC(=O)[C@H](C)C(=O)[C@H](C)[C@H]1O[C@@H]1O[C@H](C)C[C@H](N(C)C)[C@H]1O | > 64 µg/mL | > 64 µg/mL | 16 µg/mL (≈ 25.4 µM) | > 64 µg/mL | 4 µg/mL (≈ 6.36 µM) | > 64 µg/mL | > 64 µg/mL | 8 µg/mL (≈ 12.7 µM) | 8 µg/mL (≈ 12.7 µM) | 16 µg/mL (≈ 25.4 µM) | 8 µg/mL (≈ 12.7 µM) | 1 µg/mL (≈ 1.59 µM) | 4 µg/mL (≈ 6.36 µM)
4 | CC[C@H]1OC(=O)[C@H](C)C(=O)[C@H](C)[C@@H](O[C@@H]2O[C@H](C)C[C@H](N(C)C)[C@H]2O)[C@](C)(OC)C[C@@H](C)C(=O)[C@H](C)[C@H]2N(CCCCn3cnc(-c4cccnc4)c3)C(=O)O[C@]12C [TELITHROMYCIN] | 0.5 µg/mL (≈ 0.616 µM) | > 64 µg/mL | 0.25 µg/mL (≈ 0.308 µM) | ≤ 0.125 µg/mL | 0.5 µg/mL (≈ 0.616 µM) | ≤ 0.06 µg/mL | 4 µg/mL (≈ 4.93 µM) | 0.25 µg/mL (≈ 0.308 µM) | ≤ 0.125 µg/mL | 1 µg/mL (≈ 1.23 µM) | ≤ 0.125 µg/mL | ≤ 0.06 µg/mL | ≤ 0.06 µg/mL
5 | CC[C@H]1OC(=O)[C@H](C)[C@@H](O[C@H]2C[C@@](C)(OC)[C@@H](O)[C@H](C)O2)[C@H](C)[C@@H](O[C@@H]2O[C@H](C)C[C@H](N(C)C)[C@H]2O)[C@](C)(O)C[C@@H](C)CN(C)[C@H](C)[C@@H](O)[C@]1(C)O [AZITHROMYCIN] | > 64 µg/mL | > 64 µg/mL | > 64 µg/mL | > 64 µg/mL | 4 µg/mL (≈ 5.34 µM) | 8 µg/mL (≈ 10.7 µM) | > 64 µg/mL | 1 µg/mL (≈ 1.34 µM) | 0.25 µg/mL (≈ 0.334 µM) | 1 µg/mL (≈ 1.34 µM) | 1 µg/mL (≈ 1.34 µM) | ≤ 0.125 µg/mL | ≤ 0.125 µg/mL
6 | CCOc1ccccc1N1CCN(CC(O)CO[C@]2(C)C[C@@H](C)NC(=O)[C@H](C)[C@@H](O)[C@](C)(O)[C@@H](CC)OC(=O)[C@H](C)C(=O)[C@H](C)[C@H]2O[C@@H]2O[C@H](C)C[C@H](N(C)C)[C@H]2O)CC1 (mixture of isomers) | 2 µg/mL | > 64 µg/mL | 4 µg/mL | 16 µg/mL | 8 µg/mL | 8 µg/mL | 16 µg/mL | 4 µg/mL | 2 µg/mL | 32 µg/mL | 2 µg/mL | 0.5 µg/mL | ≤ 0.125 µg/mL
7 | CC[C@H]1OC(=O)[C@H](C)C(=O)[C@H](C)[C@@H](O[C@@H]2O[C@H](C)C[C@H](N(C)C)[C@H]2O)[C@](C)(OCC(O)CN2CCN(c3ccc4ncccc4c3)CC2)C[C@@H](C)NC(=O)[C@H](C)[C@@H](O)[C@]1(C)O (some centres undefined) | 0.25 µg/mL (≈ 0.291 µM) | > 64 µg/mL | 2 µg/mL (≈ 2.33 µM) | 1 µg/mL (≈ 1.17 µM) | 0.5 µg/mL (≈ 0.583 µM) | 0.25 µg/mL (≈ 0.291 µM) | 4 µg/mL (≈ 4.66 µM) | 2 µg/mL (≈ 2.33 µM) | 1 µg/mL (≈ 1.17 µM) | 2 µg/mL (≈ 2.33 µM) | 0.25 µg/mL (≈ 0.291 µM) | ≤ 0.125 µg/mL | ≤ 0.125 µg/mL
8 | CC[C@H]1OC(=O)[C@H](C)C(=O)[C@H](C)[C@@H](O[C@@H]2O[C@H](C)C[C@H](N(C)C)[C@H]2O)[C@](C)(OCC(O)CNc2ccc3ncccc3c2)C[C@@H](C)NC(=O)[C@H](C)[C@@H](O)[C@]1(C)O (some centres undefined) | 2 µg/mL (≈ 2.53 µM) | > 64 µg/mL | 0.25 µg/mL (≈ 0.317 µM) | 2 µg/mL (≈ 2.53 µM) | 1 µg/mL (≈ 1.27 µM) | 2 µg/mL (≈ 2.53 µM) | 8 µg/mL (≈ 10.1 µM) | 4 µg/mL (≈ 5.07 µM) | 1 µg/mL (≈ 1.27 µM) | 0.5 µg/mL (≈ 0.634 µM) | 1 µg/mL (≈ 1.27 µM) | ≤ 0.125 µg/mL | ≤ 0.125 µg/mL

— ChEMBL document CHEMBL1212927, “Synthesis and structure-activity relationships of novel 8a-aza-8a-homoerythromycin A ketolides” (2010)
